Measured values as given in patent US8664203B2, “Thiazole derivatives and their use as P2Y12 receptor antagonists” (Actelion Pharmaceuticals Ltd., priority 2009, dated 2014).
pIC50: −log10 of the molar value. Structures can show the parent of a compound that is named as a salt.

Molecular target: T1, human P2Y12 receptor (Homo sapiens, UniProt Q9H244)
T1 construct: expressed in transfected cells; host or cells: CHO cells
Assay: P2Y12 receptor binding assay
Settings: CHO cells with recombinant expression of the human P2Y12 receptor; tritium-labeled 2-methyl-S-ADP; RT, 2 hours
Procedure: P2Y12 Receptor Binding Assay
Chinese Hamster Ovary (CHO) cells with recombinant expression of the human P2Y12 receptor were cultured in 24 well cell-culture plates. Cells were washed three times with binding buffer (50 mM Tris pH 7.4, 100 mM NaCl, 1 mM EDTA, 0.5% BSA). The cells were then incubated with 0.5 ml per well binding buffer containing tritium-labeled 2-methyl-thio-adenosine 5′-diphosphate (2-methyl-S-ADP) (between 100′000 and 300′000 dpm per well) and various concentrations of test compounds. After incubation at RT for 2 hours, cells were washed three times with binding buffer. Then, cells were solubilized by addition of 0.5 ml solubilization buffer (SDS, NaOH, EDTA). The content of each well was then transferred into beta-counter vials and 2.0 ml of Ultima Gold Scintillation liquid was added.

T1 sequence (Q9H244 whole entry): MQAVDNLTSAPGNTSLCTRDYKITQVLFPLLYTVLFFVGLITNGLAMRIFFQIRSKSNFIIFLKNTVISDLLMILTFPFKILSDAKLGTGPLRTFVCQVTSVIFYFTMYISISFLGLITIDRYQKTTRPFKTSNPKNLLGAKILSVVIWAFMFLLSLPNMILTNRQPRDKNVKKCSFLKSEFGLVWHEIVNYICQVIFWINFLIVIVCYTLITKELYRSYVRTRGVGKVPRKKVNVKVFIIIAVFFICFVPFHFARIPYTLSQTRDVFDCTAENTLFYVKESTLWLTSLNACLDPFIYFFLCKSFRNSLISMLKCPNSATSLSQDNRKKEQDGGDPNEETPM

Structure (SMILES)	pIC50
CCCCOC(=O)N1CCN(C(=O)CNC(=O)c2nc(-c3ccccc3)sc2/C=C/C(=O)OCC)CC1 [Example 30, 4-(2-{[5-((E)-2-Ethoxycarbonyl-vinyl)-2-phenyl-thiazole-4-carbonyl]-amino}-acetyl)-piperazine-1-carboxylic acid butyl ester]	6.57
CCCCOC(=O)N1CCN(C(=O)CNC(=O)c2nc(-c3ccccc3)sc2/C=C/C(=O)O)CC1 [Example 31, 4-(2-{[5-((E)-2-Carboxy-vinyl)-2-phenyl-thiazole-4-carbonyl]-amino}-acetyl)-piperazine-1-carboxylic acid butyl ester]	7.72
CCCCOC(=O)N1CCN(C(=O)CNC(=O)c2nc(-c3ccccc3)sc2CCC(=O)OCC)CC1 [Example 32, 4-(2-{[5-(2-Ethoxycarbonyl-ethyl)-2-phenyl-thiazole-4-carbonyl]-amino}-acetyl)-piperazine-1-carboxylic acid butyl ester]	6.80
CCCCOC(=O)N1CCN(C(=O)CNC(=O)c2nc(-c3ccccc3)sc2CCC(=O)O)CC1 [Example 33, 4-(2-{[5-(2-Carboxy-ethyl)-2-phenyl-thiazole-4-carbonyl]-amino}-acetyl)-piperazine-1-carboxylic acid butyl ester]	7.51
CCCCOC(=O)N1CCN(C(=O)CNC(=O)c2nc(-c3ccccc3)sc2C=CCOC)CC1 [Example 34, 4-(2-{[5-(3-Methoxy-propenyl)-2-phenyl-thiazole-4-carbonyl]-amino}-acetyl)-piperazine-1-carboxylic acid butyl ester]	7.07
CCCCOC(=O)N1CCN(C(=O)CNC(=O)c2nc(-c3ccccc3)sc2CCCOC)CC1 [Example 35, 4-(2-{[5-(3-Methoxy-propyl)-2-phenyl-thiazole-4-carbonyl]-amino}-acetyl)-piperazine-1-carboxylic acid butyl ester]	7.00
CCCCOC(=O)N1CCN(C(=O)[C@@H](NC(=O)c2csc(-c3ccccc3)n2)C(C)C)CC1 [Example 36, 4-{(S)-3-Methyl-2-[(2-phenyl-thiazole-4-carbonyl)-amino]-butyryl}-piperazine-1-carboxylic acid butyl ester]	6.98
CCCCOC(=O)N1CCN(C(=O)[C@H](CO)NC(=O)c2nc(-c3ccccc3)sc2Br)CC1 [Example 37, 4-{(S)-2-[(5-Bromo-2-phenyl-thiazole-4-carbonyl)-amino]-3-hydroxy-propionyl}-piperazine-1-carboxylic acid butyl ester]	6.16
CCCCOC(=O)N1CCN(C(=O)[C@H](CO)NC(=O)c2csc(-c3ccccc3)n2)CC1 [Example 38, 4-{(S)-3-Hydroxy-2-[(2-phenyl-thiazole-4-carbonyl)-amino]-propionyl}-piperazine-1-carboxylic acid butyl ester]	7.15
CCCCOC(=O)N1CCN(C(=O)[C@H](CO)NC(=O)c2nc(-c3ccccc3)sc2/C=C/C(=O)O)CC1 [Example 39, 4-((S)-2-{[5-((E)-2-Carboxy-vinyl)-2-phenyl-thiazole-4-carbonyl]-amino}-3-hydroxy-propionyl)-piperazine-1-carboxylic acid butyl ester]	7.46
CCCCOC(=O)N1CCN(C(=O)[C@H](CO)NC(=O)c2nc(-c3ccccc3)sc2CCC(=O)O)CC1 [Example 40, 4-((S)-2-{[5-(2-Carboxy-ethyl)-2-phenyl-thiazole-4-carbonyl]-amino}-3-hydroxy-propionyl)-piperazine-1-carboxylic acid butyl ester]	7.37
CCCCOC(=O)N1CCN(C(=O)[C@H](CP(=O)(O)O)NC(=O)c2csc(-c3ccc(F)cc3)n2)CC1 [Example 41, 4-((R)-2-{[2-(4-Fluoro-phenyl)-thiazole-4-carbonyl]-amino}-3-phosphono-propionyl)-piperazine-1-carboxylic acid butyl ester]	8.22
CCCCOC(=O)N1CCN(C(=O)[C@H](CP(=O)(OCC)OCC)NC(=O)c2nc(-c3ccccc3)sc2-c2ccccc2)CC1 [Example 42, 4-{(R)-3-(Diethoxy-phosphoryl)-2-[(2,5-diphenyl-thiazole-4-carbonyl)-amino]-propionyl}-piperazine-1-carboxylic acid butyl ester]	5.66
CCCCOC(=O)N1CCN(C(=O)[C@H](CP(=O)(O)O)NC(=O)c2nc(-c3ccccc3)sc2-c2ccccc2)CC1 [Example 43, 4-{(R)-2-[(2,5-Diphenyl-thiazole-4-carbonyl)-amino]-3-phosphono-propionyl}-piperazine-1-carboxylic acid butyl ester]	7.89
CCCCOC(=O)N1CCN(C(=O)[C@H](CP(=O)(OCC)OCC)NC(=O)c2nc(-c3ccccc3)sc2N2CCN(C)CC2)CC1 [Example 44, 4-((R)-3-(Diethoxy-phosphoryl)-2-{[5-(4-methyl-piperazin-1-yl)-2-phenyl-thiazole-4-carbonyl]-amino}-propionyl)-piperazine-1-carboxylic acid butyl ester]	5.38
CCCCOC(=O)N1CCN(C(=O)[C@H](CP(=O)(O)O)NC(=O)c2nc(-c3ccccc3)sc2N2CCN(C)CC2)CC1 [Example 45, 4-((R)-2-{[5-(4-Methyl-piperazin-1-yl)-2-phenyl-thiazole-4-carbonyl]-amino}-3-phosphono-propionyl)-piperazine-1-carboxylic acid butyl ester; hydrochloride]	8.52
CCCCOC(=O)N1CCN(C(=O)[C@H](CP(=O)(OCC)OCC)NC(=O)c2nc(-c3ccccc3)sc2N(C)CCCC)CC1 [Example 46, 4-[(R)-2-{[5-(Butyl-methyl-amino)-2-phenyl-thiazole-4-carbonyl]-amino}-3-(diethoxy-phosphoryl)-propionyl]-piperazine-1-carboxylic acid butyl ester]	6.09
CCCCOC(=O)N1CCN(C(=O)[C@H](CP(=O)(O)O)NC(=O)c2nc(-c3ccccc3)sc2N(C)CCCC)CC1 [Example 47, 4-((R)-2-{[5-(Butyl-methyl-amino)-2-phenyl-thiazole-4-carbonyl]-amino}-3-phosphono-propionyl)-piperazine-1-carboxylic acid butyl ester]	8.52
CCCCOC(=O)N1CCN(C(=O)[C@H](CP(=O)(O)O)NC(=O)c2nc(-c3ccccc3)c(Br)s2)CC1 [Example 48, 4-{(R)-2-[(5-Bromo-4-phenyl-thiazole-2-carbonyl)-amino]-3-phosphono-propionyl}-piperazine-1-carboxylic acid butyl ester]	8.22
CCCCOC(=O)N1CCN(C(=O)[C@H](CP(=O)(O)O)NC(=O)c2nc(-c3ccccc3)c(-c3ccccc3)s2)CC1 [Example 49, 4-{(R)-2-[(4,5-Diphenyl-thiazole-2-carbonyl)-amino]-3-phosphono-propionyl}-piperazine-1-carboxylic acid butyl ester]	6.82
CCCCOC(=O)N1CCN(C(=O)CNC(=O)c2nc(-c3ccccc3)c(-c3ccccc3)s2)CC1 [Example 50, 4-{2-[(4,5-Diphenyl-thiazole-2-carbonyl)-amino]-acetyl}-piperazine-1-carboxylic acid butyl ester]	5.93
CCCCOC(=O)N1CCN(C(=O)CNC(=O)c2nc(-c3ccccc3)c(/C=C/COC)s2)CC1 [Example 51, 4-(2-{[5-((E)-3-Methoxy-propenyl)-4-phenyl-thiazole-2-carbonyl]-amino}-acetyl)-piperazine-1-carboxylic acid butyl ester]	6.42
CCCCOC(=O)N1CCN(C(=O)CNC(=O)c2nc(-c3ccccc3)c(CCCOC)s2)CC1 [Example 52, 4-(2-{[5-(3-Methoxy-propyl)-4-phenyl-thiazole-2-carbonyl]-amino}-acetyl)-piperazine-1-carboxylic acid butyl ester]	6.13
CCCCOC(=O)N1CCN(C(=O)CNC(=O)c2nc(-c3ccccc3)c(/C=C/C(=O)OCC)s2)CC1 [Example 53, 4-(2-{[5-((E)-2-Ethoxycarbonyl-vinyl)-4-phenyl-thiazole-2-carbonyl]-amino}-acetyl)-piperazine-1-carboxylic acid butyl ester]	6.29
CCCCOC(=O)N1CCN(C(=O)CNC(=O)c2nc(-c3ccccc3)c(CCC(=O)OC)s2)CC1 [Example 54, 4-(2-{[5-(2-Methoxycarbonyl-ethyl)-4-phenyl-thiazole-2-carbonyl]-amino}-acetyl)-piperazine-1-carboxylic acid butyl ester]	6.26
CCCCOC(=O)N1CCN(C(=O)CNC(=O)c2nc(-c3ccccc3)c(CCC(=O)O)s2)CC1 [Example 55, 4-(2-{[5-(2-Carboxy-ethyl)-4-phenyl-thiazole-2-carbonyl]-amino}-acetyl)-piperazine-1-carboxylic acid butyl ester]	6.50
CCCCOC(=O)N1CCN(C(=O)[C@H](CCC(=O)O)NC(=O)c2nc(-c3ccccc3)c(Br)s2)CC1 [Example 56, 4-{(S)-2-[(5-Bromo-4-phenyl-thiazole-2-carbonyl)-amino]-4-carboxy-butyryl}-piperazine-1-carboxylic acid butyl ester]	7.35
CCCCOC(=O)N1CCN(C(=O)[C@H](CP(=O)(OCOC(C)=O)OCOC(C)=O)NC(=O)c2csc(-c3ccccc3)n2)CC1 [Example 57, 4-{(R)-3-[Bis-(acetoxymethoxy)-phosphoryl]-2-[(2-phenyl-thiazole-4-carbonyl)-amino]-propionyl}-piperazine-1-carboxylic acid butyl ester]	8.30
CCCCOC(=O)N1CCN(C(=O)[C@H](CP(=O)(N[C@@H](C)C(=O)OCC)N[C@@H](C)C(=O)OCC)NC(=O)c2csc(-c3ccccc3)n2)CC1 [Example 58, N,N′-Bis-((S)-1-Ethoxycarbonylethyl)-(R)-2-[(2-phenyl-thiazole-4-carbonyl)-amino]-3-oxo-3-(4-butoxy-carbonyl-piperazin-1-yl)-propyl-phosphonic acid diamide]	5.91
